Results as given in ChEMBL document CHEMBL3885881, “DrugMatrix”.

Organism: Rattus norvegicus
Test: DrugMatrix - Regimen: Daily Repeat
Assay type: toxicity, organism-based, Sprague-Dawley
Set-up: regimen Daily Repeat, gender Male, age 6-8 weeks
Conditions: in vivo, po, route oral GAVAGE, vehicle .5 % CMC; for ABSOLUTE BASOPHIL / ABSOLUTE EOSINOPHIL / ABSOLUTE LYMPHOCYTE / ABSOLUTE MONOCYTE / ABSOLUTE SEGMENTED NEUTROPHIL / BASOPHIL / EOSINOPHIL / ERYTHROCYTE COUNT / HEMATOCRIT / HEMOGLOBIN / LEUKOCYTE COUNT / LYMPHOCYTE / MEAN CORPUSCULAR HEMOGLOBIN / MEAN CORPUSCULAR HEMOGLOBIN CONCENTRATION / MEAN CORPUSCULAR VOLUME / MONOCYTE / NEUTROPHIL / NUCLEATED RED BLOOD CELLS / PLATELET COUNT: tissue Blood; for ALANINE AMINOTRANSFERASE / ALBUMIN / ALKALINE PHOSPHATASE / ASPARTATE AMINOTRANSFERASE / BLOOD UREA NITROGEN / CARBON DIOXIDE / CHLORIDE / CHOLESTEROL / CREATINE PHOSPHOKINASE / CREATININE / GLUCOSE / LACTATE DEHYDROGENASE / LIPASE / PHOSPHORUS / POTASSIUM / SODIUM / TOTAL BILIRUBIN / TOTAL PROTEIN / URIC ACID: tissue Plasma
[1] = 15 mg/kg, 120 h, dose level Low, time 5 day
[2] = 710 mg/kg, 72 h, dose level High, time 3 day
[3] = 710 mg/kg, 120 h, dose level High, time 5 day

CN1C(=O)CN=C(c2ccccc2)c2cc(Cl)ccc21 [DIAZEPAM]
ABSOLUTE BASOPHIL [1]: 0 CELLS/uL
ABSOLUTE EOSINOPHIL [1]: 72 CELLS/uL
ABSOLUTE LYMPHOCYTE [1]: 10533.67 CELLS/uL
ABSOLUTE MONOCYTE [1]: 40.33 CELLS/uL
ABSOLUTE SEGMENTED NEUTROPHIL [1]: 587.33 CELLS/uL
BASOPHIL [1]: 0%
EOSINOPHIL [1]: 0.67%
ERYTHROCYTE COUNT [1]: 5.7 x10E6/uL
HEMATOCRIT [1]: 36.2%
HEMOGLOBIN [1]: 14.23 G/DL
LEUKOCYTE COUNT [1]: 11.23 x10E3/uL
LYMPHOCYTE [1]: 93.67%
MEAN CORPUSCULAR HEMOGLOBIN [1]: 25.07 pg
MEAN CORPUSCULAR HEMOGLOBIN CONCENTRATION [1]: 39.37 G/DL
MEAN CORPUSCULAR VOLUME [1]: 63.67 fL
MONOCYTE [1]: 0.33%
NEUTROPHIL [1]: 5.33%
NUCLEATED RED BLOOD CELLS [1]: 0 /100WBC
PLATELET COUNT [1]: 1134.33 x10E3/uL
ALANINE AMINOTRANSFERASE [1]: 51.33 u/L
ALBUMIN [1]: 4.17 G/DL
ALKALINE PHOSPHATASE [1]: 404.33 u/L
ASPARTATE AMINOTRANSFERASE [1]: 80.33 u/L
BLOOD UREA NITROGEN [1]: 16.33 mg/dL
CARBON DIOXIDE [1]: 27.67 mmol/L
CHLORIDE [1]: 101.67 MEQ/L
CHOLESTEROL [1]: 58.67 mg/dL
CREATINE PHOSPHOKINASE [1]: 231 u/L
CREATININE [1]: 0.18 mg/dL
GLUCOSE [1]: 147.67 mg/dL
LACTATE DEHYDROGENASE [1]: 117.67 u/L
LIPASE [1]: 9 u/L
PHOSPHORUS [1]: 12.13 mg/dL
POTASSIUM [1]: 7.09 MEQ/L
SODIUM [1]: 143.97 MEQ/L
TOTAL BILIRUBIN [1]: 0.23 mg/dL
TOTAL PROTEIN [1]: 5.93 G/DL
URIC ACID [1]: 1.43 mg/dL
ABSOLUTE BASOPHIL [2]: 0 CELLS/uL
ABSOLUTE EOSINOPHIL [2]: 125.67 CELLS/uL
ABSOLUTE LYMPHOCYTE [2]: 9703.33 CELLS/uL
ABSOLUTE MONOCYTE [2]: 42.33 CELLS/uL
ABSOLUTE SEGMENTED NEUTROPHIL [2]: 1128.67 CELLS/uL
BASOPHIL [2]: 0%
EOSINOPHIL [2]: 1%
ERYTHROCYTE COUNT [2]: 5.78 x10E6/uL
HEMATOCRIT [2]: 35.37%
HEMOGLOBIN [2]: 13.83 G/DL
LEUKOCYTE COUNT [2]: 11 x10E3/uL
LYMPHOCYTE [2]: 88.33%
MEAN CORPUSCULAR HEMOGLOBIN [2]: 23.93 pg
MEAN CORPUSCULAR HEMOGLOBIN CONCENTRATION [2]: 39.1 G/DL
MEAN CORPUSCULAR VOLUME [2]: 61.17 fL
MONOCYTE [2]: 0.33%
NEUTROPHIL [2]: 10.33%
NUCLEATED RED BLOOD CELLS [2]: 0 /100WBC
PLATELET COUNT [2]: 1330.67 x10E3/uL
ALANINE AMINOTRANSFERASE [2]: 69.67 u/L
ALBUMIN [2]: 4.07 G/DL
ALKALINE PHOSPHATASE [2]: 240 u/L
ASPARTATE AMINOTRANSFERASE [2]: 86.67 u/L
BLOOD UREA NITROGEN [2]: 14 mg/dL
CARBON DIOXIDE [2]: 33.33 mmol/L
CHLORIDE [2]: 101.33 MEQ/L
CHOLESTEROL [2]: 106.33 mg/dL
CREATINE PHOSPHOKINASE [2]: 222 u/L
CREATININE [2]: 0.21 mg/dL
GLUCOSE [2]: 159 mg/dL
LACTATE DEHYDROGENASE [2]: 204.67 u/L
LIPASE [2]: 10.67 u/L
PHOSPHORUS [2]: 12.7 mg/dL
POTASSIUM [2]: 6.45 MEQ/L
SODIUM [2]: 143.1 MEQ/L
TOTAL BILIRUBIN [2]: 0.2 mg/dL
TOTAL PROTEIN [2]: 5.53 G/DL
URIC ACID [2]: 1.27 mg/dL
ABSOLUTE BASOPHIL [3]: 0 CELLS/uL
ABSOLUTE EOSINOPHIL [3]: 31.67 CELLS/uL
ABSOLUTE LYMPHOCYTE [3]: 10193.33 CELLS/uL
ABSOLUTE MONOCYTE [3]: 269 CELLS/uL
ABSOLUTE SEGMENTED NEUTROPHIL [3]: 1672.67 CELLS/uL
BASOPHIL [3]: 0%
EOSINOPHIL [3]: 0.33%
ERYTHROCYTE COUNT [3]: 5.59 x10E6/uL
HEMATOCRIT [3]: 34.87%
HEMOGLOBIN [3]: 13.8 G/DL
LEUKOCYTE COUNT [3]: 12.17 x10E3/uL
LYMPHOCYTE [3]: 84%
MEAN CORPUSCULAR HEMOGLOBIN [3]: 24.77 pg
MEAN CORPUSCULAR HEMOGLOBIN CONCENTRATION [3]: 39.6 G/DL
MEAN CORPUSCULAR VOLUME [3]: 62.47 fL
MONOCYTE [3]: 2.33%
NEUTROPHIL [3]: 13.33%
NUCLEATED RED BLOOD CELLS [3]: 0 /100WBC
PLATELET COUNT [3]: 1299.67 x10E3/uL
ALANINE AMINOTRANSFERASE [3]: 81.67 u/L
ALBUMIN [3]: 3.93 G/DL
ALKALINE PHOSPHATASE [3]: 319.33 u/L
ASPARTATE AMINOTRANSFERASE [3]: 104.67 u/L
BLOOD UREA NITROGEN [3]: 13.67 mg/dL
CARBON DIOXIDE [3]: 25.33 mmol/L
CHLORIDE [3]: 101 MEQ/L
CHOLESTEROL [3]: 119.67 mg/dL
CREATINE PHOSPHOKINASE [3]: 535.33 u/L
CREATININE [3]: 0.16 mg/dL
GLUCOSE [3]: 133.33 mg/dL
LACTATE DEHYDROGENASE [3]: 507 u/L
LIPASE [3]: 11.33 u/L
PHOSPHORUS [3]: 11.5 mg/dL
POTASSIUM [3]: 5.38 MEQ/L
SODIUM [3]: 142.53 MEQ/L
TOTAL BILIRUBIN [3]: 0.13 mg/dL
TOTAL PROTEIN [3]: 5.7 G/DL
URIC ACID [3]: 1.23 mg/dL
